Read-outs that look alike come from different tables or passages of the source.
Experiments:
[1] = tested on: apomorphine induced climbing behavior; experiment: Antipsychotic screen: apomorphine induced climbing behavior; format: in vivo; details: mouse, apomorphine 1 mg/kg, observed 20 minutes after; for ED50: 20 min, read-out: Approx. 50% ED, apomorphine climbing
Procedure: The effect of each of the benzofurancarboxamides shown in Table VIII below on apomorphine induced climbing behavior was tested under the conditions described by Costetin et al. "Rapid and Dissociated Changes in Sensitivities of Different Dopamine Receptors in Mouse Brain," Nature, 257, 405 (1975). Each mouse was administered from 0.1 to 50 mg/kg of test compound and antagonism was observed 20 minutes after injection of 1 mg/kg apomorphine induced climbing behavior.

[2] = tested on: dopamine receptors; details: cited from earlier work
[3] = tested on: apomorphine emesis; experiment: Antiemetic screen: Apomorphine Emesis (Dog); format: in vivo, Beagle dogs; details: s.c., apomorphine HCl 0.1 mg/kg sc one hour after test compound, 2 dogs; for ED100: Canis lupus familiaris, sc, 1 h, read-out: 100% Effect Dosage level (dosage at which both animals were protected from apomorphine emesis)
Procedure: Each of the test compounds shown in Table VIII was administered subcutaneously to two Beagle dogs at dosage levels of 0.05, 0.1, 1.0 and 10.0 mg/kg. One hour following administration of the test compound, each animal received 0.1 mg/kg, sc, of apomorphine HCl. Apomorphine consistently evokes an immediate emetic response through direct dopaminergic interaction at the medullary chemoreceptor trigger zone (CTZ). Antiemetic compounds which act at the CTZ and/or the midbrain vomiting center will block this effect. If both animals receiving a particular treatment are protected, (i.e., no emetic response within one hour after apomorphine), the test compound is considered active.

[4] = oral (marked in cell; head prints s.c.)
[5] = ip, i.p. (marked in cell; head prints s.c.)

CCN1CCCC1CNC(=O)c1ccc(OC)c2c1OC(C)C2 (centres unmarked) [drawing 99 R = H R' = OCH3]
ED50 [1, 4]: ~25 mg/kg

CCN1CCCC1CNC(=O)c1cc(S(N)(=O)=O)ccc1OC (centres unmarked) [sulpiride, 2-methoxy-N-(1-ethyl-2-pyrrolidinylmethyl)-5-sulfamoyl benzamide]
release of prolactin (side effect) [2]: increase in the release of prolactin

CCN1CCCC1CNC(=O)c1cc(NS(C)(=O)=O)cc2c1OCC2 (centres unmarked) [drawing 98 R = NHSO2 CH3, N-(1-ethyl-2-pyrrolidinylmethyl)-5-methanesulfonamido-2,3-dihydrobenzo[b]furan-7-carboxamide]
ED50 [1, 4]: ~50 mg/kg | ED100 [3]: 1 mg/kg

CCN1CCCC1CNC(=O)c1cccc2cc(C)oc12 (centres unmarked) [drawing 97 R = CH3]
ED50 [1, 5]: ~3 mg/kg | ED100 [3]: 10 mg/kg

O=C(NC1CCN(Cc2ccccc2)C1)c1cc(Br)cc2ccoc12 (centres unmarked)
ED50 [1, 5]: ~30 mg/kg

CCN1CCCC1CNC(=O)c1cccc2c1OCC2 (centres unmarked) [drawing 98 R = H]
ED50 [1, 5]: ~20 mg/kg | ED100 [3]: 1 mg/kg

CCN(CC)CCNC(=O)c1cc(Cl)c(N)cc1OC [metoclopramide, 4-amino-5-chloro-N-[(2-diethylamino)ethyl]-2-methoxybenzamide]
release of prolactin (side effect) [2]: increase in the release of prolactin

CCN1CCCC1CNC(=O)c1cccc2c1OC(C)C2 (centres unmarked) [drawing 99 R = H R' = H]
ED50 [1, 5]: ~20 mg/kg | 100% Effect Dosage level (dosage at which both animals were protected from apomorphine emesis) [3]: 0.05 mg/kg

CCN1CCCC1CNC(=O)c1cccc2c1OC(C)(C)C2 (centres unmarked) [drawing 109 R1 = R2 = CH3]
ED50 [1, 5]: ~100 mg/kg | ED100 [3]: 10 mg/kg

CCN1CCCC1CNC(=O)c1cc(Br)cc2c1OCC2 (centres unmarked) [drawing 98 R = Br]
ED50 [1, 4]: ~15 mg/kg | ED100 [3]: 1 mg/kg

CCN1CCCC1CNC(=O)c1cc(N)cc2c1OCC2.O=C(O)/C=C/C(=O)O (centres unmarked) [drawing 98 R = NH2, 5-amino-N-(1-ethyl-2-pyrrolidinylmethyl)-2,3-dihydrobenzo[b]furan-7-carboxamide fumarate]
ED50 [1, 4]: ~20 mg/kg | ED50 [1, 5]: ~25 mg/kg

CCN1CCCC1CNC(=O)c1cccc2c1OC(C)C2 (centres unmarked) [drawing 109 R1 = H,R2 = CH3]
Approx. 50% ED, apomorphine climbing ([1]; i.p. (marked in cell; head prints s.c.)): ~20 mg/kg | 100% Effect Dosage level (dosage at which both animals were protected from apomorphine emesis) [3]: 0.85 mg/kg

CCN1CCCC1CNC(=O)c1cc(Cl)cc2ccoc12.O=C(O)/C=C/C(=O)O (centres unmarked) [drawing 105 R = Cl R' = H, 5-chloro-N-(1-ethyl-2-pyrrolidinylmethyl)benzo[b]furan-7-carboxamide fumarate]
ED50 [1, 4]: ~5 mg/kg | ED100 [3]: 0.1 mg/kg

CCN1CCCC1CNC(=O)c1cc([N+](=O)[O-])cc2c1OCC2 (centres unmarked) [drawing 98 R = NO2, N-(1-ethyl-2-pyrrolidinylmethyl)-5-nitro-2,3-dihydrobenzo[b]furan-7-carboxamide]
ED50 [1, 4]: ~15 mg/kg | ED50 [1, 5]: ~20 mg/kg | ED100 [3]: 1 mg/kg

CCN1CCCC1CNC(=O)c1cccc2ccoc12 (centres unmarked) [drawing 97 R = H]
ED50 [1, 5]: ~12 mg/kg | ED100 [3]: 10 mg/kg

CCN1CCCC1CNC(=O)c1ccc(Cl)c2c1OC(C)C2.O=C(O)/C=C/C(=O)O (centres unmarked) [drawing 99 R = H R' = Cl, 4-chloro-N-(1-ethyl-2-pyrrolidinylmethyl)-2-methyl-2,3-dihydrobenzo[b]furan-7-carboxamide fumarate]
ED50 [1, 4]: ~40 mg/kg | ED50 [1, 5]: ~25 mg/kg

CCN1CCCC1CNC(=O)c1cc(C)cc2c1OCC2.Cl (centres unmarked) [drawing 98 R = CH3, N-(1-ethyl-2-pyrrolidinylmethyl)-5-methyl-2,3-dihydrobenzo[b]furan-7-carboxamide hydrochloride]
ED50 [1, 5]: ~3 mg/kg | ED100 [3]: 0.1 mg/kg

CCN1CCCC1CNC(=O)c1cc(F)cc2ccoc12 (centres unmarked) [drawing 105 R = F R' = H]
ED100 [3]: 1 mg/kg

CCN1CCCC1CNC(=O)c1cc(OC)cc2c1OC(C)C2 (centres unmarked) [drawing 99 R = OCH3 R' = H]
ED50 [1, 4]: ~1 mg/kg | ED50 [1, 5]: ~25 mg/kg | ED100 [3]: 0.1 mg/kg

CCN1CCCC1CNC(=O)c1cc(Br)cc2c1OC(C)C2 (centres unmarked) [drawing 99 R = Br R' = H]
ED50 [1, 5]: ~2 mg/kg | ED100 [3]: 0.005 mg/kg

CCN1CCCC1CNC(=O)c1cc(Cl)cc2c1OCC2 (centres unmarked) [drawing 98 R = Cl]
ED50 [1, 4]: ~15 mg/kg | ED50 [1, 5]: ~5 mg/kg | ED100 [3]: 1 mg/kg

CCN1CCCC1CNC(=O)c1cc(Cl)c(Cl)c2c1OC(C)C2 (centres unmarked) [drawing 99 R = Cl R' = Cl]
ED50 [1, 4]: ~10 mg/kg

CCN1CCCC1CNC(=O)c1cc(Br)cc2ccoc12 (centres unmarked)
ED50 [1, 5]: ~0.5 mg/kg | ED100 [3]: 0.1 mg/kg

CCN1CCCC1CNC(=O)c1cc(NC(C)=O)cc2c1OCC2.O=C(O)/C=C/C(=O)O (centres unmarked) [drawing 98 R = NHCOCH3, 5-acetamido-N-(1-ethyl-2-pyrrolidinylmethyl)-2,3-dihydrobenzo[b]furan-7-carboxamide fumarate]
ED50 [1, 5]: ~50 mg/kg

Source: patent publication US4888353A, “Carboxamides useful as antiemetic or antipsychotic agents” (Erbamont, Inc., priority 1986, dated 1989)
